Test results as given in US12144799B2, “Method for long-term storage of chlorophyll-containing extract” (ABL CO., LTD, priority 2018, dated 2024).

Key:
[1] = Storage stability test of chlorophyll a in stabilization candidate oils (HPLC content); details: chlorophyll a in the oil layer, room temperature storage, dark place
Method: (§1) In order to analyze the content of extracted chlorophyll, high-performance liquid chromatography (HPLC) was used. Purification was performed using the Agilent 1100 Series HPLC system from AGILENT, and the column used was Shimadzu Shim-pack C18 analytical column (250 mm×4.6 mm, 5 μm, 100). The peak was detected as ultraviolet ray absorption using a diode array detector. The injection volume was […], and the flow rate was […].
(§2) The reference material for chlorophyll a was purchased from Aldrich Chemical Co. (Milwaukee, Wis.), and was used without a further purification process.
The storage stability of chlorophyll a stabilization candidate materials used in the above process for chlorophyll-a was tested. Samples were collected for each storage period at various temperatures, and the content of chlorophyll a was analyzed using the HPLC system described above.
Temperatures for the test were respectively freezing temperature (−20° C.), refrigerating temperature (4° C.), room temperature (25° C.), high temperature (50° C.), and being left at room temperature.
In this process, ethanol was removed. Thereafter, the obtained was stored for a predetermined period in a dark place for each temperature to collect samples for each storage period, and then the content of chlorophyll a was analyzed using the HPLC system described above.

[2] = Fractional extraction of chlorophyll a from ethanol extract into oil layer (HPLC); format: physicochemical; details: oil added 1:1 (50 ml) to ethanol extract of wheatgrass powder, stirred, layers separated for 2 minutes
Method: as §1, §2

## CC(C)=CCC/C(C)=C/CC/C(C)=C/CC/C=C(\C)CC/C=C(\C)CCC=C(C)C [squalene]
[1]
  half-life of chlorophyll a: 7 months
[2]
  chlorophyll a moved to / dissolved in the oil phase: more than 80%
